This is an account of results in patent US6436929B1 (Wyeth, priority 1999, dated 2002).

In data set [1] the test system is rat uterine decidualization. The experiment in a line: Rat decidualization assay. The note with it: s.c.; for Estimated average EC50: average over dose-response curves; for EC50: ovariectomized rats, uterine wet weight/decidual response, individual studies (Exp). It is filed as in vivo. How it is done:
The animals are treated once daily for seven days.
Uteri are removed and trimmed of fat.
Decidual response: [(D−C)/C]×100%

Data set [2] addresses T1, human PR (Homo sapiens, UniProt P06401).
T1 construct: expressed in transfected cells; host or cells: CV-1 cells (electroporation with pLEM-hPR-B and pGL3-2xPRE-luciferase)
T1 sequence (P06401 1-933): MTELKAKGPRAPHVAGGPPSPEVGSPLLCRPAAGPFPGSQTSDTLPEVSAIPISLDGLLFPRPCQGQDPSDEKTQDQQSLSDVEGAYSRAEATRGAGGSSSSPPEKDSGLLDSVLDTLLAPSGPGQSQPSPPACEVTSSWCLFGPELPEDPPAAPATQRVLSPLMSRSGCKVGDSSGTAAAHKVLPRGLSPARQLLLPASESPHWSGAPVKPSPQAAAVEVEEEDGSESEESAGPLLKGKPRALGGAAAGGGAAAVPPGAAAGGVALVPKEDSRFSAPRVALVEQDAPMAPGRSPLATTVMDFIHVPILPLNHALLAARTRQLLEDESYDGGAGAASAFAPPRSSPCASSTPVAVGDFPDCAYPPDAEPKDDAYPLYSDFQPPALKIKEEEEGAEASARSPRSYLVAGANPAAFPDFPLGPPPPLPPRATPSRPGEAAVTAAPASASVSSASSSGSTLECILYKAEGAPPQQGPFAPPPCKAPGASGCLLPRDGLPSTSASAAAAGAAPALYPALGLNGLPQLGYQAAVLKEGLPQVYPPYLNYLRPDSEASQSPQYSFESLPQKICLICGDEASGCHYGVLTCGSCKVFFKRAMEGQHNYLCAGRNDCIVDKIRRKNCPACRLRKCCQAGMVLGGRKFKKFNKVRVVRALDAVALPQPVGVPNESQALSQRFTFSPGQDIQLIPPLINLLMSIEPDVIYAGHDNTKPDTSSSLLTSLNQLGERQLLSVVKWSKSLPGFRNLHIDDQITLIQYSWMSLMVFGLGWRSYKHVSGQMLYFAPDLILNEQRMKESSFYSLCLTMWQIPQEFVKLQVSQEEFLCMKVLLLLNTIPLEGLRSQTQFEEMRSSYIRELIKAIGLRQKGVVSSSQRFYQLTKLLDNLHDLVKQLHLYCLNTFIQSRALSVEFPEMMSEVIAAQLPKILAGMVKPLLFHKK
The experiment in a line: PRE-luciferase assay in CV-1 cells co-transfected with human PR and PRE-luciferase plasmids. Particulars: agonist mode, PRE-luciferase in CV-1 cells, Table 1; read-out: hPR CV-1 EC50. It is filed as cell-based. How it is done:
The object of this assay is to determine a compound's progestational or antiprogestational potency based on its effect on PRE-luciferase reporter activity in CV-1 cells co-transfected with human PR and PRE-luciferase plasmids. The materials methods used in the assay are as follows.
Electroporation is carried out at 260 V and […] in a Biorad Gene Pulser II. After electroporation, cells are resuspended in growth medium and plated in 96-well plate at 40,000 cells/well in 200 μl. Following overnight incubation, the medium is changed to experimental medium Cells are then treated with reference or test compounds in experimental medium. […] Twenty-four hr. after treatment, the medium is discarded, cells are washed three times with D-PBS (GIBCO, BRL). Fifty μl of cell lysis buffer (Promega, Madison, Wis.) is added to each well and the plates are shaken for 15 min in a Titer Plate Shaker (Lab Line Instrument, Inc.).
Each treatment consists of at least 4 replicates. Log transformed data are used for analysis of variance and nonlinear dose response curve fitting for both agonist and antagonist modes. Huber weighting is used to downweight the effects of outliers. EC50 or IC50 values are calculated from the retransformed values.

The subject of data set [3] is Ovulation. Briefly: Ovulation inhibition. It is filed as in vivo. Particulars: Table 1.
Data set [4] deals with T47D cells. The experiment in a line: T47D cell proliferation assay (BrdU incorporation). It is filed as cell-based. The note with it: half-maximal increase in BrdU incorporation, individual studies (Exp). How it is done:
The objective of this assay is the determination of progestational and antiprogestational potency by using a cell proliferation assay in T47D cells. A compound's effect on DNA synthesis in T47D cells is measured.
DMEM:F12(1:1) (GIBCO, BRL) supplemented with 10% (v/v) fetal bovine serum (not heat-inactivated), 100 U/ml penicillin, […], and 2 mM GlutaMax (GIBCO, BRL).
Minimum Essential Medium (MEM) (#51200-038GIBCO, BRL) phenol red-free supplemented with 0.5% charcoal stripped fetal bovine serum, 100 U/ml penicillin, […] streptomycin, and 2 mM GlutaMax (GIBCO, BRL). […]
At the end of BrdU labeling, the medium is removed and BrdU incorporation is measured using a cell proliferation ELISA kit (#RPN 250, Amersham Life Science) according to manufacturer's instructions. […] Then 25 μl of 1 M sulfuric acid is added to each well to stop color reaction and optical density is read in a plate reader at 450 nm within 5 min.
Square root-transformed data are used for analysis of variance and nonlinear dose response curve fitting for both agonist and antagonist modes. […] EC50 or IC50 values are calculated from the retransformed values. […]
(Dividing cells build labelled thymidine or BrdU into new DNA.)

Where “and” joins values, the source holds several entries; their conditions need not be identical. Equal values may be shown once.

Take `C#C[C@]1(O)CC[C@H]2[C@@H]3CCC4=CC(=O)CC[C@@H]4[C@H]3C(=C)C[C@@]21CC` [3-Ketodesogestrel]: in data set [1], the “Estimated average EC50” value is reported as 0.10 mg/kg; the EC50 was 0.10 mg/kg and 0.06 mg/kg and 0.11 mg/kg.
What is called melting point is the temperature, or range, at which the solid turns liquid. Regarding `CC1(C)OC(=S)Nc2ccc(-c3cccc(Cl)c3)cc21` [Compound 1, 6-(3-Chlorophenyl)-4,4-dimethyl-1,4-dihydro-benzo[d][1,3]oxazin-2-thione], the melting point fell in the range of 183 to 184 °C. In addition, in data set [2], the EC50 was determined as 0.65 nM.
For the molecule `CC1(C)OC(=S)Nc2ccc(-c3csc(C#N)c3)cc21` [Compound 2, 4-(4,4-Dimethyl-2-thioxo-1,4-dihydro-2H-benzo[d][1,3]oxazin-6-yl)-thiophene-2-carbonitrile], the melting point is 242 to 243 °C. Moreover, the EC50 in data set [2] was found to be 0.3 nM. The “Ovulation Inhibition ED100” value in data set [3] was 1 mg/kg.
In the case of `CC1(C)OC(=S)Nc2ccc(-c3cc(F)cc(C#N)c3)cc21` [Compound 3, 3-(4,4-Dimethyl-2-thioxo-1,4-dihydro-2H-benzo[d][1,3]oxazin-6-yl)-5-fluorobenzonitrile], the EC50 in data set [2] was found to be 5.1 nM.
`CCCCc1cc(C#N)sc1-c1ccc2c(c1)C(C)(C)OC(=S)N2` [Example 64, 4-Butyl-5-(4,4-dimethyl-2-thioxo-1,4-dihydro-2H-3,1-benzoxazin-6-yl)thiophene-2-carbonitrile] gave a melting point of 174 to 175 °C.
On the same count and under the same terms, for `CC1(C)OC(=S)Nc2ccc(-c3cccc(Br)c3)cc21` [Example 65, 6-(3-Bromophenyl)-4,4-dimethyl-1,4-dihydro-2H-3,1-benzoxazine-2-thione] the value was 191 to 193 °C.
Still for that read-out and setting: the value for `CC1(C)OC(=S)Nc2ccc(-c3sccc3C#N)cc21` [Example 66, 2-(4,4-Dimethyl-2-thioxo-1,4-dihydro-2H-3,1-benzoxazin-6-yl)thiophene-3-carbonitrile] was 194 to 195 °C.
With `C#C[C@]1(O)CC[C@H]2[C@@H]3CCC4=CC(=O)CC[C@@H]4[C@H]3CC[C@@]21CC` [Levonorgestrel], in data set [1], the “Estimated average EC50” value is reported as 0.10 mg/kg; the EC50 was 0.08 mg/kg and 0.12 mg/kg and 0.09 mg/kg (2×).
In data set [4] (Homo sapiens, T47D), `CC(=O)O[C@]1(C(C)=O)CC[C@H]2[C@@H]3C[C@H](C)C4=CC(=O)CC[C@]4(C)[C@H]3CC[C@@]21C` [MPA, medroxyprogesterone acetate] registered an EC50 of 0.019 nM.
On to `C[C@H](O)C(=O)[C@@]1(C)CC[C@H]2[C@@H]3CCC4=CC(=O)CCC4=C3CC[C@@]21C` [Trimegestone], for which the EC50 in data set [4] is 0.017 nM and 0.014 nM and 0.019 nM.
